In patent publication US12544355B2, “Use of monascinol in preparation of fat-reducing product” (TIANJIN UNIVERSITY OF SCIENCE AND TECHNOLOGY, priority 2019, dated 2026):
Marks after values point to notes of the source that are not given here.

Key:
[1] = tested on: HepG2 cells modeled with oleic acid; assay: Cytotoxicity (MTT) on HepG2 cells modeled with oleic acid; format: cell-based; settings: 24 h, 0.3 mmol/L oleic acid
Experimental: (§1) HepG2 cells in good growth condition were inoculated in a 6-well plate at 2*10^5 cells/mL, 1 mL per well. When cell adhesion rate reached 80%-90%, the medium was discarded. A blank group and a model group were set, where a complete medium was added to the blank group, 0.3 mmol/L oleic acid induction solution diluted with a complete medium was added to the model group, at 2 mL per well; after 24 hours of culture, the accumulation of lipid drops in the cells was observed by oil red 0 staining.
• a. HepG2 cells in good growth condition were inoculated in a 96-well plate at 5*10^4 cells/mL, 100 μL per well. When the cell adhesion rate reached 80%-90%, the medium was discarded. • b. MS and MC were each dissolved in dimethyl sulfoxide (DMSO) to prepare a 5 mg/mL of mother liquid, and the mother liquid was stored at −20° C. The 5 mg/mL of mother liquid was diluted with a complete medium containing 0.3 mmol/L of oleic acid to obtain MS sample concentrations or MC sample concentrations (2, 4, 6, 8, 10, 12 μg/mL) required for the experiment, ensuring that a final concentration of DMSO in each sample is 0.5%. • c. […]
After 24 h, the survival rate of HepG2 cells in each group was detected based on a MTT experiment method. • d. results are shown in FIG. 2.

[2] = tested on: HepG2 cells modeled with oleic acid; assay: Triglyceride content in HepG2 cells modeled with oleic acid (triglyceride kit); format: cell-based; settings: 24 h, 0.3 mmol/L oleic acid; for reduce the TG content in cells by: Example 3, 2 μg/mL
Experimental: • a. HepG2 cells in good growth condition were inoculated in a 6-well plate at 2*10^5 cells/mL, 1 mL per well, cultured for 12 h, and after the cells adhered to the wall, the medium was discarded. • b. after the medium was discarded, a blank group, a modeling group and a dosing group were set. • Blank control group: added with 2 mL of a complete medium per well; • Oleic acid modeling group: added with 2 mL of a complete medium containing 0.3 mmol/L of oleic acid per well; • MC low dose group: added with 2 mL of a complete medium containing 0.3 mmol/L of oleic acid and 2 μg/mL of Monascinol per well; • MC middle dose group: added with 2 mL of a complete medium containing 0.3 mmol/L of oleic acid and 4 μg/mL of Monascinol per well; • MC high dose group: added with 2 mL of a complete medium containing 0.3 mmol/L of oleic acid and 8 μg/mL of Monascinol per well; • After completing the administration, the cells of each group were cultured for 24 hours and then collected, a triglyceride kit (Beijing Applygen Technologies Inc.) was utilized to measure the content of triglyceride in HepG2 cells of each group. • c. results are shown in FIG. 3. Different letters indicate significant differences from the blank group, P<0.01.
Firstly, normal HepG2 cells were obtained, and HepG2 cells modeled with oleic acid were obtained according to the method in Example 1 (a concentration of oleic acid was 0.3 mmol/L).
(§2) On day 1, blank control group: normally cultured HepG2 cells without treatment; oleic acid modeling group (the concentration of oleic acid is 0.3 mmol/L): normally culture HepG2 cells modeled with oleic acid without treatment; MC group: HepG2 cells modeled with oleic acid were administered with 2 μg/mL of Monascinol, i.e., MC; MS group: HepG2 cells modeled with oleic acid were administered with 2 μg/mL of Monascin (MS).
After completing the administration, the cells of each group were cultured for 24 hours and then collected, a triglyceride kit (Beijing Applygen Technologies Inc.) was utilized to measure the content of triglyceride in HepG2 cells of each group, results are shown in FIG. 4.

[3] = tested on: HepG2 cells modeled with oleic acid; assay: Oil red O staining of lipid drops in HepG2 cells modeled with oleic acid; format: cell-based; settings: 2 μg/mL, inverted microscope ×400
Experimental: as §1, §2
Morphological observation was further carried out by oil red 0 staining, and the results are shown in FIGS. 5A-5C (inverted microscope×400), FIG. 5A is a diagram of lipid accumulation in HepG2 cells of an oleic acid modeling group; FIG. 5B is a diagram of lipid accumulation in HepG2 cells of an MS group; FIG. 5C is a diagram of lipid accumulation in HepG2 cells of an MC group. […] This is consistent with the test result of TG.

[4] = target: T1, pancrelipase (Type II, derived from a porcine pancreas) (Sus scrofa, UniProt P00591); assay: Inhibitory activity on pancrelipase, 4-MUO substrate, fluorescence detection; format: biochemical; settings: 4-MUO 0.1 mM, lipase 1 mg/mL, 30 mins at 25° C.
T1 construct: pancrelipase (Type II, derived from a porcine pancreas); from tissue; host or cells: porcine pancreas
T1 sequence (P00591 1-450): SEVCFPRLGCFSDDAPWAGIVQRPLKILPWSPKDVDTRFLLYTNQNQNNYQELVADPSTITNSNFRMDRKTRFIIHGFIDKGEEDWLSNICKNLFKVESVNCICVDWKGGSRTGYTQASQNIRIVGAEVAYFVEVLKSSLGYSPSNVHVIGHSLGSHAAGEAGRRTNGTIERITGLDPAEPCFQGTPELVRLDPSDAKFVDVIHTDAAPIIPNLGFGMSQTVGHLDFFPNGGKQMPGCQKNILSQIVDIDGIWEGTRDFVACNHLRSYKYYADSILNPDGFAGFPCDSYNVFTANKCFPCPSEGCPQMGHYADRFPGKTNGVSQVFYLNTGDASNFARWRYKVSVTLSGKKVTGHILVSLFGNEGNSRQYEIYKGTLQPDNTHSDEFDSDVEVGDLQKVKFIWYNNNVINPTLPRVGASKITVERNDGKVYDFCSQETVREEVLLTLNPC
Excerpt: In an experiment, 4-methylumbelliferyl oleate (4-MUO) was used as a substrate and a fluorescence detection method was used to evaluate the inhibitory activity of MC on pancrelipase (Type II, derived from a porcine pancreas).
The following groups were set (see also Table 1): • Blank group: no MC sample, only substrate, pancrelipase and Tris-HCL buffer; • Blank background group: no MC sample and pancrelipase, only substrate and Tris-HCL buffer; • Sample background group: no pancrelipase, only MC sample, substrate and Tris-HCL buffer; • Sample group: no Tris-HCL buffer, only MC sample, substrate and pancrelipase.
The inhibition rate was calculated according to the following formula: Inhibition rate (%)=[(A1−A2)−(A3−A4)]/(A1−A2)×100
A1: Fluorescence value in blank group; A2: Fluorescence value in blank background group; A3: Fluorescence value in sample group; and A4: Fluorescence value in sample background group.
Three parallel experiments were set for each group, in which the concentration of 4-MUO is 0.1 mM, and the MC samples were dissolved in DMSO (set 6 different concentrations: 5, 10, 20, 40, 80 and 160 μg/mL), the concentration of the lipase solution is 1 mg/mL. […] Therefore, the product 4-methylumbelliferone was determined under conditions of an excitation wavelength of 360±40 nm and an emission wavelength 460±40 nm. […]

pancrelipase = target: T2, pancrelipase (Sus scrofa, UniProt P00591); assay: Type of inhibition on pancrelipase (order of addition, Lineweaver-Burk double reciprocal plot); format: biochemical, porcine; settings: 160 μg/mL MC, lipase 1 mg/mL
T2 construct: pancrelipase (Type II, derived from a porcine pancreas); from tissue; host or cells: porcine pancreas
T2 sequence (P00591 1-450): T1 sequence (P00591 1-450)
Experimental: According to different forms and characteristics of binding between enzymes and inhibitors, the inhibitions can be divided into two types: reversible inhibition and irreversible inhibition. The irreversible inhibition usually binds to a group in an enzyme protein by a relatively strong covalent bond to inactivate an enzyme. […] In this part of experiment, MS and AK were used as controls, and the type of inhibition of MC was determined by changing the order of adding reactants, the intervention concentrations of the three pigment inhibitors were all 80 μg/mL. […]
The type of inhibition of MC on pancrelipase was determined based on the results of Lineweaver-burk double reciprocal plot method as follows.
A basic process of experiment of drawing the Lineweaver-Burk curve was: under the condition of a determined lipase concentration (1 mg/mL), the enzymatic reaction rates were measured with a series of different substrate concentrations. […]

[5] = tested on: Golden Syrian hamsters fed with high-fat diet; assay: High-fat diet hamster experiment, 10 weeks gavage; format: in vivo, Golden Syrian hamster
Experimental: 24 male Golden Syrian hamsters (hamsters for short) used in the animal experiment were purchased from Beijing Vital River Laboratory Animal Technology Co., Ltd., weighing 110-120 g, and aged 8 weeks.
After acclimation for a period of time, they were randomly divided into 3 groups, each with 8 animals, and the grouping and experiments were carried out as follows:
Every day starting from Day 1: • Normal group (NOR): take normal-chow diet freely, and gavage the same amount of CMC-Na solution as the MC group; • High fat group (HFD): take high-fat chow diet freely, and gavage the same amount of CMC-Na solution as the MC group; • MC group: take high-fat chow diet freely, and gavage MC (dissolved in CMC-Na solution) at a dose of 20 mg/kg body weight.
The weight and food intake of the hamsters were measured every week. After 10 weeks, tissue samples or serum samples were collected and the following analysis was performed.
TC and TG in the liver were extracted based on the Folch method, the TC and TG detection kits produced by Nanjing Jiancheng Bioengineering Institute was used to detect the contents of TC and TG in liver tissue according to the method provided in the instructions.
Cobas8000 E602 full-automatic biochemical analyzer (Roche Diagnostics Co., Ltd., Germany) was used to measure TC and TG in serum of collected serum samples.

[6] = high-fat diet, gavage 20 mg/kg body weight daily
[7] = histology, 100× and 400× light microscope, 20 mg/kg

| IC50 [4] [µM] | type of inhibition on pancrelipase (pancrelipase) | SMILES | survival rate of cells ([1]; administration concentration 12 μg/mL) [%] | TG content in the cells decreased by (vs modeling group) ([2]; Example 2, 2 μg/mL) [%] | TG content in the cells decreased by (vs modeling group) ([2]; Example 2, 4 μg/mL) [%] | TG content in the cells decreased by (vs modeling group) ([2]; Example 2, 8 μg/mL) [%] | reduce the TG content in cells by [2] [%] | lipid drops in the cells, oil red O staining vs oleic acid modeling group [3] | Fat index (weight of perirenal and periepididymal fat pad/weight of body) [5, 6] | Liver tissue TC [5, 6] | Liver tissue TG [5, 6] | Liver weight [5, 6] | Serum TC [5, 6] | Serum TG [5, 6] | Weight gain [5, 6] | Weight of periepididymal fat pad [5, 6] | Weight of perirenal fat pad [5, 6] | adipose tissue sections: volume of periepididymal and perirenal adipose cells vs HFD group [5, 7] | liver tissue sections: lipid accumulation in liver cells vs HFD group [5, 7] | survival rate of cells ([1]; administration concentration 10 μg/mL or more) [%] |
| --- | --- | --- | --- | --- | --- | --- | --- | --- | --- | --- | --- | --- | --- | --- | --- | --- | --- | --- | --- | --- |
| 219 | anti-competitive inhibition | C/C=C/C1=CC2=C(CO1)C[C@]1(C)OC(=O)[C@H](C(O)CCCCC)[C@H]1C2 (stereo partly drawn) [MC, Monascinol] | 66.7 | 38.9 | 34.6 | 51.3 | 33.3 | reduce lipid drops in the cells and lighten color | 3.56 ± 0.26^a | 20.66 ± 0.58^c mg/g | 9.62 ± 0.34^a mg/g | 4.21 ± 0.17^a g | 4.73 ± 0.21^b mmol/L | 2.97 ± 0.39^c mmol/L | 22.33 ± 4.12^c g | 2.99 ± 0.28^a g | 1.62 ± 0.19^a g | significantly smaller volume than that in the HFD group | significantly reduced |  |
|  |  | C/C=C/C1=CC2=C(CO1)C(=O)[C@]1(C)OC(=O)[C@H](C(=O)CCCCC)[C@H]1C2 [MS, Monascin] |  |  |  |  | 26.3 |  |  |  |  |  |  |  |  |  |  |  |  | 36.7 |
